Data reported in patent publication US20030144212A1, “USE OF SERINE PROTEASE INHIBITORS TO INHIBIT PATHOPHYSIOLOGY AND NEUROPATHOLOGY IN A HOST” (priority 2000, published 2003).

What was measured:
[1] = tested on: seizure-proneness (after-discharge duration); test: Kindling by repeated electrical stimulation of hippocampus, after-discharge duration; format: in vivo, rat; conditions: 50 mgs/kg injected once prior to first stimulation; tested 10 days later; control rats ~400%
Experimental: Rats were divided into two groups: Group I rats were injected with 50 mgs/kg AEBSF and Group II (control) rats were injected with saline. The rats of both groups were then stimulated by direct electrical impulses to the dentate gyrus region of the hippocampus (40 times/5 mins apart)(a paradigm known to promote “kindling”, which can be thought of as an increase in seizure-proneness). The after-discharge duration (AD-duration) was then measured in each group. After a 10 day waiting period, the rats were again stimulated (5 times/20 mins apart)(no drugs were administered). The AD-duration was again measured.

[2] = tested on: pre-existing seizure proneness (after-discharge duration); test: Restimulation of previously kindled rats (pre-existing seizure proneness), after-discharge duration; format: in vivo, rat; conditions: AEBSF (50 mgs/ml) injection prior to stimulations
Excerpt: The control group rats from III, above, were restimulated, with four of the rats of this group receiving a saline injection prior to stimulation and the remaining four rats receiving AEBSF (50 mgs/ml) injection prior to stimulations. […] The AD duration average of the control group was 207±103% of their original average, while the AD duration of the AEBSF injected rats was 26±77% of their original average.

[3] = biological target: T1, tissue plasminogen activator (tPA) (Homo sapiens, UniProt P00750); test: Incubation of synthetic substrates with tPA; format: biochemical
T1 construct: purchased Sigma
T1 sequence (P00750 311-562 limits assumed, species assumed): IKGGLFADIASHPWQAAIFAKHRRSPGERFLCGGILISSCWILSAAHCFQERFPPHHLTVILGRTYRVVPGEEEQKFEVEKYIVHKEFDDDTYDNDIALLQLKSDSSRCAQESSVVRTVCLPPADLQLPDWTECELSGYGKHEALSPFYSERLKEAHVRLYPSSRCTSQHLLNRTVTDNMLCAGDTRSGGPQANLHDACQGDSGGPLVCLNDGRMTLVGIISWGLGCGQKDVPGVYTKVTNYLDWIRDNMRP
T1 sequence (P00750 36-310 partner limits assumed, species assumed): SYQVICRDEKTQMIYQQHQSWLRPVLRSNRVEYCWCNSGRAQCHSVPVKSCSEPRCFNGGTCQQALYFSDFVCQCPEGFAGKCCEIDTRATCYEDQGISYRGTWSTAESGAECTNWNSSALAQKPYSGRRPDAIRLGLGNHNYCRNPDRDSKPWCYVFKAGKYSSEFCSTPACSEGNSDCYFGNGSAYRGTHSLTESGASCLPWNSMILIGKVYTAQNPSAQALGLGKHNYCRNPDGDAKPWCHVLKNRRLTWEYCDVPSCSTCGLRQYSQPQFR
Experimental: 1.5 μg/ml of tissue plasminogen activator (tPA, two chain, Sigma) was incubated at 23 ° C. with 40 μM ASLA- and A-AMC substrates (with or without the inhibitor AEBSF) in a final volume of 1.3 mls aCSF. After one hour of incubation the samples were put in the fluorometer and quantification of proteolytic activity normalized the readings from the A-AMC substrate to 100 (arbitrary units).

[4] = tested on: endogenous protease(s) found in hippocampal ultrasupernatants; test: Cleavage of fluorescent AMC substrates by hippocampal ultrasupernatants; format: biochemical, rat; conditions: 100 μM substrate
Experimental: Hippocampi were rapidly extracted from adult male Sprague-Dawley rats and submerged in ice-cold artificial cerebrospinal fluid (aCSF) which consisted of (in mM): 124 NaCl, 3 KCl, 1.25 KH2PO4, 2.5 MgSO4, 3.4 CaCl2, 26 NaHCO3 and 10 glucose (pH 7.4), homogenized on ice for 1 min in 3 mls of the same buffer and then centrifuged for 5 min. at 1000 g (3° C.). The pellet was discarded and the resulting supernatant was ultracentrifuged at 200,000 g for 20 min. at 3° C. in a TLS-55 rotor (Beckman Instruments). The resulting ultrasupematant fraction was devoid of membrane-bound proteins and therefore represents a soluble protein fraction. This fraction was diluted to 50 μgs/ml in aCSF and incubated at room temperature with 100 μM of arginine linked to a fluorescent amido methyl-coumarin (AMC) substrate (Sigma Chemical Co), or to […] (Enzyme Systems Products; Livermore Cailf.) in the presence of differing concentrations of the serine protease inhibitor AEBSF (4-(2-Aminoethyl)benzenesulfonyl fluoride) (Sigma Chemical Co). Fluorescence was measured in a fluorometer (Sequoia-Turner Corp.) at 430 nm with stimulation at 360 nm. Quantification of proteolytic inhibition was performed by normalization of fluorescence in control tubes (i.e. those without added AEBSF) to 0 percent.
The serine protease substrate arginine-AMC (A-AMC) and a substrate made up of the CAM serine protease target sequence (arginine-serine-lysine-arginine) (ASLA-AMC) were both cleaved when incubated with soluble protein fractions (i.e. ultrasupernatants) from the hippocampus. This assay was then used to identify drugs and dosages that prevent extracellular CAM cleavage by endogenous proteases. The serine protease inhibitor AEBSF (4-(2-Aminoethyl)-benzenesulfonyl fluoride) inhibited proteolysis of the CAM sequence (ASLA-AMC) and did so to a much greater degree than it blocked the proteolysis of A-AMC. At 250 and 1000 uM A-AMC cleavage was blocked by 15 and 33 percent, respectively, while ASLA-AMC proteolysis was blocked by 44 and 70 percent. FIG. 3 (p≦0.0001).

[5] = tested on: CAM75 (75 kDa cell adhesion molecule fragment) generation by serine protease; test: Incubation of hippocampal homogenates, CAM75 fragment by immunoblot; format: biochemical, rat; conditions: membranes incubated for one hour with 500 μM inhibitor; controls 45±8%; n=3-5, p=0.03
Experimental: Hippocampi were rapidly extracted from adult male Sprague-Dawley rats and submerged in ice-cold buffer (10 mM Tris-base, 100 mM NaCl; pH 7.4) homogenized on ice for 1 min in 5 mls of the same buffer and then centrifuged for 3 min. at 1000 g (4° C.). The pellet was discarded and the resulting supernatant was immediately incubated at 37° C. with or without EDTA, EGTA, or AEBSF. After incubation, samples were ultracentrifuged (as above) and processed for immunoblotting. Quantification of immunoblots was performed by densitometry with normalization of the immunoreactivity levels at 0 minutes to 100 percent (n=4 or 5; mean±S.E.M. for all time points).
Similar results are obtained with brain homogenates, where a 65 kDa fragment and CAM75 are produced upon incubation in the presence of EDTA or EGTA (see FIG. 1). As noted, fragments similar in size to CAM75 are generated by cleavage of any of several NCAM relatives by serine-type proteases. That CAM75 also arises from an enzyme of this type was confirmed with the selective inhibitor 4-(2-Aminoethyl)-benzenesulfonyl fluoride (AEBSF); a 12±8% increase in the fragment occurred in membranes incubated for one hour with 500 μM of the inhibitor while a 45±8% increase was obtained in controls (n=3-5; p=0.03).

[6] = tested on: LTP in hippocampal slices (CA1 field EPSPs); test: Long-term potentiation in hippocampal slices (theta burst stimulation, field EPSPs); format: cell-based, rat
Experimental: Brains from male Sprague-Dawley rats (190-225 g) were rapidly removed and placed into ice cold aCSF. Hippocampi were then cut transversely into 400-μm slices and transferred to a recording chamber perfused with aCSF (35° C.), where they were exposed to a humidified gas mixture of 95% oxygen and 5% carbon dioxide. After an hour recovery period, field recordings were made with a glass recording electrode containing 2 M NaCl positioned in the stratum radiatum of CAlb. NAC (Eclectex Enterprises; Irvine Cailf.) was used to record field EPSPs elicited by delivering single stimulation pulses (0.1 ms, 1-15 μA) to one of two bipolar electrodes positioned in Schaffer-commissural projections in CAla and CAlc. Each projection was stimulated every 20 sec with 10 sec interval between each electrode. After establishing a stable baseline (10-20 min), LTP was induced using a theta burst stimulation (TBS) paradigm [J. Larson et al., Brain Res. 368, 347-350 (1986)] in one pathway. After 30 minutes the perfusion media was switched to one containing 250 μM AEBSF. Forty-five minutes later TBS was applied to the non-potentiated pathway. The AEBSF/aCSF mixture was perfused for an additional 10 minutes, after which regular aCSF was added. In another set of slices TBS stimulation was applied during aCSF perfusion, and five minutes after LTP induction 250 μM AEBSF was infused for the remainder of the experiment. Potentiation for all groups was tabulated as the percent increase above initial baseline slopes.
The magnitude of this effect varied considerably across slices but within slice differences between potentiation elicited before (control) vs. after (experimental) infusion of the drug could not be detected. However, the development of LTP in the minutes following induction was clearly different as is evident in FIG. 5A. […] Mean percent potentiation at this time point was 103±5% for experimental and 134±3% for control pathways (n=6, p=0.005).

NMDA receptors = test: NMDA receptor stimulation of organotypic hippocampal cultures, CAM75 immunoblot; format: cell-based, rat
Excerpt: The culture medium (Bahr, et al. “Stable maintenance of glutamate receptors and other synaptic components in long-term hippocampal slices,” Hippocampus 5, 425-439 (1995))(CM) was changed every other day. Slices were maintained in culture for 2-3 weeks and then subjected to a brief NMDA receptor stimulation paradigm (Thibault et al., “Long-lasting physiological effects of bath applied N-methyl-D-aspartate,” Brain Res. 476, 170-173 (1989) and Malenka, “Postsynaptic factors control the duration of synaptic enhancement in area CA 1 of the hippocampus,” Neuron 6, 53-60 (1991)). To activate NMDA receptors the slices were treated with 400 μM NMDA, 2 ; mM CaCl2 (4 mM total) and 1 mM glycine. Control slices were also subjected to this cocktail but were first pretreated for 10 minutes with either 100 μM AP5 (an NMDA antagonist), or with kynurenic acid (2 mM) and MK-801 (100 μM), in CM. After 30 seconds of incubation with the NMDA cocktail, the solutions were removed and CM plus 2 mM AP5 was added to all slices. Tissue was harvested and processed for immunoblotting as described (See Bahr et al., supra). […] Protein concentrations for the non-soluble pellets (i.e. all tissue left after the supernatant was extracted) were determined with a BSA standard curve. […] Quantification of immunobands was determined without knowledge of sample type by densitometry.

[7] = tested on: CAM75 and Ng-CAM fragment in hippocampus; test: In vivo detection of NMDA receptor mediated CAM cleavage after kainate seizures; design: species or system rat
Experimental: Adult male rats were injected systemically with either: 10 mg/kg kainate (pH 7.4), 10 mg/kg kainate and 60 mg/kg ketamine (plus a second injection of 30 mg/kg ketamine one hour later), or saline. Behavioral responses were monitored (all animals in both sets injected with kainate reached seizure stages 4 or 5) and after two hours rats were anaesthetized, their hippocampi rapidly extracted and submerged in ice-cold buffer (10 mM Tris-base, 100 mM NaCl, 2 mM EDTA, and 2 mM EGTA; pH 7.4), homogenized on ice for 1 min in 5 mls of the same buffer, and then centrifuged for 3 min. at 1000 g (4° C.). The pellet was discarded and fractions of the resulting supernatants were immediately ultracentrifuged. Protein normalization and immunoblotting techniques were completed as described above. Quantification of CAM75 and the Ng-CAM fragment involved normalization of the immunoreactivity levels observed in saline injected rats to 100 percent (n=7-11; mean±S.E.M. for all groups).
Evidence for seizure induced extracellular cleavage at the consensus serine protease site was also obtained for a second adhesion molecule. Specifically, concentrations of an 80 kDa polypeptide detected by antibodies against Ng-CAM were increased by 603±140% (n=4, p=0.023) in ultrasupematant fractions from kainate injected rats.

NCCc1ccc(S(=O)(=O)F)cc1 [AEBSF, 4-(2-Aminoethyl)-benzenesulfonyl fluoride]
increase in AD-duration during the second testing period [1]: no increase in AD-duration | rats with no after discharges (no seizure-like activity) ([2]; four rats): Two out of the four | AD duration as percent of original average ([2]; tested 10 days after, saline group 207±103%): 26±77% | proteolytic activity of tPA blocked [3]: potently blocked | A-AMC cleavage blocked ([4]; 250 uM AEBSF): 15% | ASLA-AMC proteolysis blocked ([4]; 250 uM AEBSF): 44% | A-AMC cleavage blocked ([4]; 1000 uM AEBSF): 33% | ASLA-AMC proteolysis blocked ([4]; 1000 uM AEBSF): 70% | increase in the CAM75 fragment [5]: 12±8% | Mean percent potentiation ([6]; 250 μM for 45 min before TBS, about one hour post-induction, control pathways 134±3%, n=6, p=0.005): 103±5% | effect on already established LTP (potentiation over the subsequent hour) ([6]; 250 μM infused five or thirty minutes after induction): no effects on potentiation | effect on slope, amplitude, or waveform of monosynaptic field EPSPs ([6]; 250 μM infused for forty-five minutes, before TBS): no significant effect

CN[C@H](CC(=O)O)C(=O)O [NMDA]
concentration of CAM75 in soluble fractions versus control tissue (NMDA receptors; 30 seconds after a 30 second infusion of NMDA, n=12, p=0.0003): approximately twice | amount of CAM75 greater than in slices exposed to NMDA and an antagonistic drug (NMDA receptors; homogenates after 30 second infusion of NMDA, mean±sd, n=9, p<0.001): 77±41%

C=C(C)[C@H]1CN[C@H](C(=O)O)[C@H]1CC(=O)O [kainic acid]
CAM75 increase in the hippocampus ([7]; single injection 10 mg/kg, about 45 minutes of periodic seizures, saline = 100 percent, n=11, p=0.0002): 598±85% | increase of 80 kDa polypeptide detected by antibodies against Ng-CAM ([7]; ultrasupernatant fractions from kainate injected rats, n=4, p=0.023): 603±140%

CNC1(c2ccccc2Cl)CCCCC1=O (centres unmarked) [ketamine]
effect on kainate-induced CAM75 increase ([7]; 60 mg/kg plus 30 mg/kg one hour later with 10 mg/kg kainate, n=7, p=0.03): substantially reduced this effect
